Laboratory results taken from patent US7588752B2, “Antimicrobial peptides” (The University of Melbourne, priority 1997, dated 2009).
No end group written: not given here.

Assays:
[1] = tested on: Streptococcus mutans Ingbritt; format: cell-based; settings: RP-HPLC of endo Glu-C digest of TCA-soluble UF whey
Method: Peaks were collected and assayed for antimicrobial activity. Antimicrobial assays were carried out in liquid growth medium using sterile 96 well plates, each well having a capacity of 300 μL. The growth medium consisted of Todd Hewit broth (36.4 g/L), Yeast Extract (5.0 g/L) with 100 mmol/L potassium phosphate buffer. Routinely the pH of the growth medium was adjusted to 6.3. An inoculum of approximately 1.5×10^2 cells (Streptococcus sanguis, Streptococcus mutans, Porphyromonas gingivalis) that had been harvested during the exponential phase of growth, was added to each well. The ionophore gramicidin (40 μmol/L final concentration) was added to a series of wells as a negative control. Positive controls contained only the inoculum and the growth medium. Growth was determined over a 30 hour period after inoculation by measuring the optical density of the cell suspensions at a wavelength of 650 nm (OD650), using a microplate reader (Biorad, model 450). Growth was determined by subtracting the initial reading, taken immediately after inoculation from the final reading (maximum culture OD). […]

[2] = tested on: Streptococcus sanguinis (formerly S. sanguis); experiment: Antibacterial growth assay in liquid medium, 96 well plates, OD 650 nm; format: cell-based; settings: peaks of tryptic hydrolysate of sodium caseinate
Method: Hydrolysis was terminated by the addition of 1M HCl to pH 4.6. The hydrolysate was centrifuged (11,600 g for 10 min) and then filtered through a 0.2 μm PVDF filter before being applied to a 7 μm C8 (Brownlee) reversed-phase column (4.6×220 mm). The sample was eluted using an Applied Biosystems 140 A Solvent Delivery System to generate a stepwise linear gradient from 0-20% B in 2 min followed by 20-45% B in 40 min at a flow rate of 1 ml/min. Eluant A was 0.1% (v/v) TFA in water and eluant B was 80% (v/v) acetronitrile, 0.1% (v/v) TFA in water. The eluant was monitored using an Applied Biosystems 1000S Diode Array detector at a primary wavelength of 215 nm. Peaks were collected and assayed for antimicrobial activity. […] Growth was determined over a 30 hour period after inoculation by measuring the optical density of the cell suspensions at a wavelength of 650 nm (OD650), using a microplate reader (Biorad, model 450). Growth was determined by subtracting the initial reading, taken immediately after inoculation from the final reading (maximum culture OD). […]
The antibacterial assay was conducted in sterile 96 well plates (Becton Dickinson, Melbourne, Australia). […] Growth of the bacterium was determined as the difference between the final and initial Optical Density (OD) 650 nm readings using a microplate reader (BIORAD, model 450, NSW, Australia). […]

[3] = tested on: Klebsiella pneumoniae; settings: concentrations as low as 0.1 μM; injected intravenously before lethal infectious challenge; cited from earlier work
[4] = tested on: Staphylococuus carnosus; settings: cited from earlier work
[5] = tested on: Escherichia coli; settings: cited from earlier work

## AVESTVATLEDSPEVIESPPE [Ser(P)^149 κ-casein A (138-158)]
[1]
  antimicrobial activity against S. mutans: exhibited antimicrobial activity

## DMPIQAFLLYQQPVLGPVR (bovine) [β-casein (184-202)]
[2]
  antimicrobial activity against Streptococcus sanguinis: showed activity

## PGPIPN (bovine) [β-casein (63-68), casein peptide of Migliore-Samour et al. (1989)]
[3]
  protective effect in mice against Klebsiella pneumoniae infection: significant protective effect

## Ser(P)^149 κ-casein (117-169): tryptic casein peptide, genetic variant not specified ((SEQ ID NO:12) and (SEQ ID NO:14))
[2]
  antimicrobial activity against Streptococcus sanguinis: showed activity

## TTMPLW (bovine) [αs1-casein (194-199), casein peptide of Migliore-Samour et al. (1989)]
[3]
  protective effect in mice against Klebsiella pneumoniae infection: significant protective effect

## αs2-casein (fl72-203): antibacterial peptide from bovine αs2-casein released by treating milk with glacial acetic acid (Zucht et al., 1995) (QKFALPQYLKTVYQHQKAMKPWIQPKTKVIPY; UniProt P02663 187-218, looked up, fragment)
[4]
  inhibition of growth of Staphylococuus carnosus: inhibit the growth
[5]
  inhibition of growth of Escherichia coli: inhibit the growth
